Laboratory results as given in US10759994B2, “Luminogenic transition metal-based pyridyl complex and its use” (City University of Hong Kong, priority 2016, dated 2020).

What was measured:
[1] = Emission enhancement upon reaction with BCN—OH; type: physicochemical; details: complex 10 μM, BCN—OH 1 mM, aerated MeOH, 298 K
Excerpt: The strained alkyne BCN—OH has been selected as a model substrate. […] Namely, these findings confirm that complexes 1a-5b remained non-emissive or weakly emissive as long as the nitrone moiety is intact and resume their strongly emissive behavior upon cycloaddition reaction with strained alkynes.

BCN-BSA = target: T1, BCN-BSA (Bos taurus, UniProt P02769); assay: Emission enhancement upon reaction with BCN-BSA; type: biochemical, Bovine; details: complex 10 μM, protein 3.78 μM, aerated potassium phosphate buffer (50 mM, pH 7.4)/DMSO (99:1, v/v), 298 K
T1 construct: purchased Calbiochem
T1 sequence (P02769 25-607): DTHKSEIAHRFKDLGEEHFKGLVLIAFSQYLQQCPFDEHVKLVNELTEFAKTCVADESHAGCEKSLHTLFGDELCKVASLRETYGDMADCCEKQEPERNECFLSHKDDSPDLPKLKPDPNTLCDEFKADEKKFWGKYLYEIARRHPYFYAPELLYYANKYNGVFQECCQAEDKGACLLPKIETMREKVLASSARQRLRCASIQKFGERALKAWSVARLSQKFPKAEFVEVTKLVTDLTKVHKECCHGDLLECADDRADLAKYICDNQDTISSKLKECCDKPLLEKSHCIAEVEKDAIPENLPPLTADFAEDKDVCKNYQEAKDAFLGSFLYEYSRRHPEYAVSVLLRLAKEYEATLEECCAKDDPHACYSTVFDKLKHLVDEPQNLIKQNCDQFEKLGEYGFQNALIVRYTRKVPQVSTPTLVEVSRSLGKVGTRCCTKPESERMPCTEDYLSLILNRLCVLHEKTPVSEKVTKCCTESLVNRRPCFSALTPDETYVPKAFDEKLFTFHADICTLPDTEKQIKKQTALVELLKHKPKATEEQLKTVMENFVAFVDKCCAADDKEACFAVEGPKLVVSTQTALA

HeLa cells [2] = assay: Cellular uptake by ICP-MS in HeLa cells; type: cell-based; details: complex 40 μM, 12 h; for Amount of ruthenium associated with an average HeLa cell: 37° C., ICP-MS, untreated cells; for Uptake by BCN-C10-pretreated cells relative to untreated cells: HeLa cells, BCN-C10 pretreatment
Method: The cellular uptake of complexes 1a-5b was examined by ICP-MS. […] This finding should originate from intracellular esterases that convert the ester moieties of complex 3a into negatively charged carboxyl groups, enhancing its intracellular retention. […] Upon incubation of the untreated cells with the complexes, the amounts of ruthenium taken up by an average cell followed the order: 1 b<3b<5b<2b<4b, which seems to be in accordance with their lipophilic character. […] These findings indicate that the accumulation of the complexes 1 b-5b in BCN-C10-pretreated cells is not only associated with their lipophilicity, but also strongly affected by the bioorthogonal labeling of BCN-C10.
More specifically, for determining the cellular uptake of complexes 1a-3a, CHO-K1 cells were incubated in growth medium/DMSO (99:1, v/v) containing the iridium(III) complex (5 μM) in the dark at 37° C. under a 5% CO2 atmosphere for 1 h. The medium was removed, and the cell layer was thoroughly washed with PBS (1 mL×3). The cells were trypsinized by trypsin-EDTA (500 μL) and harvested with PBS. The resultant solution (2 mL) was heated with 65% HNO3 (2 mL) at 70° C. for 2 h, cooled to room temperature, and analyzed using an Elan 6100 DCR-ICP-MS (PerkinElmer SCIEX Instruments). For determining the cellular uptake of complexes 1 b 5b, HeLa cells with or without pretreatment of BCN-C10 were incubated in growth medium/DMSO (99:1, v/v) containing the ruthenium(II) complexes (40 μM) in the dark at 37° C. under a 5% CO2 atmosphere. After incubation for 12 h, the medium was removed and the cells were thoroughly washed with PBS (1 mL×3). The cells were typsinized by trypsin-EDTA (500 μL) and harvested with PBS. The resultant solution (1.5 mL) was heated with 65% HNO3 (1 mL) at 60° C. for 2 h, cooled to room temperature, and analyzed using an Elan 6100 DCR-ICP-MS.

HeLa cells [3] = type: cell-based; details: complex 40 μM; for Percentage of survival: 37° C., 6 h; for Cell viability with BCN-C10 pretreatment: BCN-C10 pretreatment (200 μM, 1 h)
Excerpt: The results particularly highlight the potential of the luminogenic transition metal-based polypyridyl complexes of the present invention for bioorthogonal labeling. […] Importantly, although the cellular uptake of complex 2b was substantially higher, it was much less cytotoxic than complex 4b toward the pretreated cells. […] The results also highlight the potential therapeutic use of intracellular bioorthogonal coupling reactions in activating the cytotoxicity of metallo drugs.
For determining the cytotoxicity of complexes 1 b 5b, HeLa cells were seeded in a 96-well flat-bottomed microplate (about 10,000 cells well^−1) in growth medium (100 μL) and incubated at 37° C. under a 5% CO2 atmosphere for 24 h. The cells were then incubated in either blank medium or growth medium/DMSO (99:1, v/v) (100 μL) containing BCN-C10 (200 μM) in the dark at 37° C. under a 5% CO2 atmosphere for 1 h. The medium was then removed, the cell layer was washed with PBS, and further incubated in growth medium/DMSO (99:1, v/v) (100 μL) containing the ruthenium(II) complexes (40 μM) in the dark at 37° C. under a 5% CO2 atmosphere for 6, 12, or 24 h. Wells containing untreated cells were used as blank control. The microplate was incubated at 37° C. under a 5% CO2 atmosphere for another 4 h. The growth medium was then removed, and DMSO (200 μL) was added to each well. The microplate was further incubated for 15 min. The absorbance of the solutions at 570 nm was measured with a SPECTRAmax 340 microplate reader.

Row | SMILES | Emission enhancement factors (I/Io) [1] | I/Io BCN-BSA (BCN-BSA) | Amount of ruthenium associated with an average HeLa cell (HeLa cells [2]) [fmol] | Percentage of survival (HeLa cells [3]) [%] | Uptake by BCN-C10-pretreated cells relative to untreated cells (HeLa cells [2]) [fold] | Cell viability with BCN-C10 pretreatment (HeLa cells [3])
1 | Cc1ccnc(-c2cc(/C=[N+](/C)[O-])ccn2)c1.F[P-](F)(F)(F)(F)F.F[P-](F)(F)(F)(F)F.[Ru+2].c1ccc(-c2ccccn2)nc1.c1ccc(-c2ccccn2)nc1 [Complex 1b] | 9.5 | 10.7 | 0.31 ± 0.01 | 91.37 ± 5.73 |  | 
2 | Cc1ccnc(-c2cc(/C=[N+](\[O-])c3ccccc3)ccn2)c1.F[P-](F)(F)(F)(F)F.F[P-](F)(F)(F)(F)F.[Ru+2].c1ccc(-c2ccccn2)nc1.c1ccc(-c2ccccn2)nc1 [Complex 5b] | 3.9 | 9.6 | 1.09 ± 0.03 | 92.78 ± 8.54 | 2.48 | maintained good biocompatibility
3 | CCCCNC(=O)c1ccnc(-c2cc(C(=O)NCCCC)ccn2)c1.CCCCNC(=O)c1ccnc(-c2cc(C(=O)NCCCC)ccn2)c1.Cc1ccnc(-c2cc(/C=[N+](/C)[O-])ccn2)c1.F[P-](F)(F)(F)(F)F.F[P-](F)(F)(F)(F)F.[Ru+2] [Complex 2b] | 7.1 | 16.9 | 1.32 ± 0.08 | 94.83 ± 16.20 | 8.89 | maintained good biocompatibility
